Measured values from patent publication US20260008801A1, “BIO-BASED SURFACTANTS DERIVED FROM CARBOHYDRATES” (COÖPERATIE KONINKLIJKE COSUN U.A., priority 2022, published 2026).

Experiments:
[1] = Solubility in water (excess of compound in 4 ml demi water); format: physicochemical; details: for Solubility: Table E5.2, water; for Solubility (%): Table E8
Method: Solubility is preferably solubility in aqueous solution, more preferably solubility in water, most preferably solubility in demineralised water. A skilled person knows how to assess such solubility.
Solubility in water was determined by preparing mixtures of an excess of compound dispersed in 4 ml demi water using a vortex at maximum speed for 1 min. […] 1 ml of the mixture was concentrated in vacuo to yield a solid. The mass of the solid was determined in mg to calculate the solubility in percentage by dividing by ten.

[2] = Solubility in media other than water (methanol, ethyl acetate, oils, 3:1 EtOH/H2O); format: physicochemical; details: for Solubility in 3:1 EtOH/H2O: 3:1 ethanol water ratio; for SOLUBILITY (H2O): medium named in the cell instead of water: Table E1, cell names the medium in which the compound is soluble
[3] = Foaming abilities, 1% compound solutions shaken by hand; format: physicochemical; design: key to FOAM: −: no foam formation; +: low foam formation; ++: moderate foam formation; +++: strong foam formation
Method: Foaming abilities were evaluated at room temperature by shaking 1% compound solutions (2 ml) of pH 3, 7, and 12 by hand for 10 s. The pH of each solution was assessed with a pH meter at room temperature. […] The foam heights at the initial time were compared to one another after which the foaming abilities were classified according to no foam formation (−), low foam formation (+), moderate foam formation (++), and strong foam formation (+++).

[4] = Foaming power and stability, Ultra-Turrax, 0.4% aq. surfactant; format: physicochemical; details: for Foamability (mL) after (min) 1 / Foamability (mL) after (min) 5 / Foamability (mL) after (min) 10: Table E5.2; for Foamability (mL) after (min) 1: foam volume after 1 min; for Foamability (mL) after (min) 5: foam volume after 5 min; for Foamability (mL) after (min) 10: foam volume after 10 min; for Foamability 1 min / Foamability 5 min / Foamability 30 min: Table E8; for Foamability 1 min: after 1 min; for Foamability 5 min: after 5 min; for Foamability 30 min: after 30 min
Method: Foaming power was also tested at room temperature with 5 mL of 0.4% aq. surfactant (20 mg) solution in a 50 mL measuring cylinder. After performing the Ultra-Turrax (a registered trademark for a high-performance dispersing instrument) for 20 seconds (8000 rpm), the initial height of the foam was measured for foam height. (volume in mL). Every time step of, 1, 3, 5, 10, 30, 60 minutes was noted. In addition, after 24 hours the stability was checked. Particularly, foaming power and stability of the surfactants were performed using an IKA Ultra-Turrax T25 with an 18 G dispersing element. At room temperature, an aqueous solution of 5 mL 0.4% surfactant in a 50 mL measuring cylinder (2.20 cm diameter) was mixed with the Ultra-Turrax for 20 seconds at 8000 rpm. The foam height (volume in mL) was denoted for 0, 1, 3, 5, 10, 30, 60 min and 24 hours. In addition, after 24 hours the stability was checked.

[5] = test system: activated sludge from a municipal wastewater treatment plant (WWTP); assay: Biodegradability, OECD 301A DOC Die-Away Test (adjusted); details: inoculum with compound and sodium acetate
Method: Biodegradability of compounds was assessed. The compound is added to an inoculate of activated sludge from a municipal wastewater treatment plant (WWTP). The experiment relies on the basic principles of the 301A DOC Die-Away Test described in the OECD guidelines for readily biodegradable substances. A small adjustment was made where the measuring is not done in conical flasks but, instead, in serum vials closed with butylrubber stoppers. This allowed measurement of the evolution of CO2 and O2 over time. In general, the experiment involves the experimental incubation (inoculum and compound), along with a blank control (inoculum no compound), a positive control (inoculum and sodium acetate), and controls for abiotic degradation (compound in medium), adsorption (compound with sterilized inoculum), and toxicity (inoculum with compound and sodium acetate).
The fresh sludge was conditioned overnight by bubbling with air at room temperature. […]
Incubations were prepared containing approximately 70 mg/L surfactant and 3 ml sludge in a final volume of 30 ml mineral medium in a borosilicate serum vial crimp-sealed with a butyl rubber stopper. […] 1 ml samples were taken weekly for surfactant quantification and centrifuged 5 min at 20.000×g. […] CO2 was analyzed by measuring headspace gas on an Agilent 8890A/5977B GC-MS equipped with an Agilent 6 FT Porapak Q 80/10 column. […]

[6] = Surface tension measurements, Wilhelmy plate (surface tension, CMC); format: physicochemical
Method: Surface tension measurements were performed with a Biolin Scientific Sigma701 automatic tension meter equipped with a Wilhelmy plate made of platinum (±0.5 mN/m). […] The number of experimental points is related to the compound's/surfactant's solubility and available quantity. All compound/surfactant solutions were allowed to stand 12 h before being measured. The platinum plate was thoroughly cleaned with demi water and flame-dried before each measurement. The CMC of each compound/surfactant was determined at the minimum of a breakpoint of a conventional plot of surface tension versus compound/surfactant concentration. DCMC was obtained by acquiring the surface tension at the CMC. The pC20 value was determined by taking the minus log of the concentration compound/surfactant at a surface tension of 52 mN/m.

Zein = Zein solubilisation (skin irritation potential); details: SDS set as 100; for zein score / skin irritation potential value: pH 7
Method: Zein solubilisation was measured to determine the irritation of the surfactants. Zein is a simple protein found in corn. It is a very simple mimic of skin protein, the more solubilised by your material the harsher the potential to irritate and dry the skin. This method is a quick screen and provides indicative data. The procedure is 1) Weight 2-2.5 ml Eppendorf's on a 4 dp balance. 2) Weight out as accurately as possible 70 mg of Zein. 3) Add to the Eppendorf and reweigh. 4) Make your surfactant dilutions. 5) Add 1 ml of the surfactant dilution to the Eppendorf. 6) Place this on a rotary mixer for 20 mins at 20 rpm at RT. 7) Remove and centrifuge for 4 mins at highest speed available on a micro centrifuge 8) Discard the supernatant making sure as much of it possible is removed. 9) Repeat with water, centrifuge and discard supernatant. 10) With the Eppendorf lid open, place at 50° C. overnight to dry (48 hours required). 11) Re-weigh the next day. 12) Calculate the amount of Zein solubilised. The obtained data allows comparison of surfactants and their harshness to skin. Decisions for in vivo testing can be based on good Zein results.
The skin irritation potential of the surfactants was investigated using zein solubilisation, which is a commonly known assay. Zein is a very simple mimic of skin protein. The more zein is solubilized by the surfactant the harsher the potential to irritate and dry the human skin. […] The surfactants were measured at different pH values, a pH of 4-5, 7 and at their original pH as is.

[7] = Table E3, N-alkylated compounds

Compound: CCCCCCCCCCCCN(C)C(=O)[C@H](O)[C@@H](O)[C@@H](O)CO [Compound 19, N-methyl-N-dodecyl-L-arabinonamide]
- solubility in water, in words [1]: well soluble
- SOLUBILITY (H2O) [1, 7]: Soluble
- solubility in ethyl acetate, in words ([2]; ethyl acetate): well soluble
- solubility in methanol, in words [2]: well soluble
- FOAM ([3]; Table E3): ++

Compound: CCCCCCCCN(C)C(=O)[C@H](O)[C@@H](O)[C@@H](O)[C@H](O)C(=O)O [Compound 20]
- solubility in water, in words [1]: well soluble
- SOLUBILITY (H2O) [1, 7]: Soluble
- solubility in methanol, in words [2]: well soluble
- foaming behaviour / foam creation, in words [3]: good foaming behaviour
- FOAM ([3]; Table E3): ++

Compound: CCCCCCCCNC(=O)[C@H](O)[C@@H](O)[C@@H](O)CO [Compound 03, 1-(N-octyl)-L-arabinonamide]
- solubility in water, in words [1]: poorly soluble
- Solubility in 3:1 EtOH/H2O [2]: soluble
- SOLUBILITY (H2O): medium named in the cell instead of water ([2]; in 3:1 ethanol/water): 3:1 EtOH/H2O &
- SOLUBILITY (H2O): medium named in the cell instead of water ([2]; in oil): in oil
- solubility in diverse oils, in words [2]: soluble
- FOAM ([3]; Table E1): −

Compound: CCCCCCCCN(C)C[C@H](O)[C@@H](O)[C@@H](O)[C@H](O)C(=O)O [Compound 31, N-methyl-N-octyl-D-galacturonic acid amine]
- solubility in H2O [1]: 15%
- SOLUBILITY (H2O) ([1]; Table E5): 15%
- Solubility [1]: 15%
- Foamability (mL) after (min) 1 [4]: 4.5 mL
- Foamability (mL) after (min) 5 [4]: 4 mL
- Foamability (mL) after (min) 10 [4]: 4 mL
- inhibition of breakdown of acetate (toxicity control) [5]: did not inhibit
- CMC (%) ([6]; Table E5): 1.15%
- SURFACE TENSION ([6]; Table E5, room temperature, pH 7): 32.067 mN/m
- CMC (%) ([6]; Table E5.2): 1.15%
- Surface tension (nM/m) ([6]; Table E5.2): 32.1 mN/m
- SURFACE TENSION ([6]; running text b302): 31.5 mN/m
- zein score / skin irritation potential value (Zein): 1
- FOAM ([3]; Table E5, pH > 7.3): ++

Compound: CCCCCCN(C)C(=O)[C@H](O)[C@@H](O)[C@@H](O)CO [Compound 18, N-methyl-N-hexyl-L-arabinonamide]
- solubility in water, in words [1]: well soluble
- SOLUBILITY (H2O) [1, 7]: Soluble
- solubility in methanol, in words [2]: well soluble
- FOAM ([3]; Table E3): −

Compound: CCCCCCCCCCNC(=O)[C@H](O)[C@@H](O)[C@@H](O)CO [Compound 04, 1-(N-Decyl)-L-arabinonamide]
- solubility in water, in words [1]: poorly soluble
- SOLUBILITY (H2O): medium named in the cell instead of water [2]: In oil
- solubility in diverse oils, in words [2]: soluble
- FOAM ([3]; Table E1): −

Compound: CCCCCCCCCCCCN(C)C(=O)[C@H](O)[C@@H](O)[C@@H](O)[C@H](O)C(=O)O [Compound 22]
- solubility in water, in words [1]: well soluble
- SOLUBILITY (H2O) [1, 7]: Soluble
- solubility in methanol, in words [2]: well soluble
- foaming behaviour / foam creation, in words [3]: good foaming behaviour
- FOAM ([3]; Table E3): ++

Compound: sodium laureth sulfate [SLES, reference compound]
- Solubility [1]: 28%
- SOLUBILITY (H2O) ([1]; Table E7, commercially available surfactants): Yes
- Solubility (%) [1]: 28%
- Foamability (mL) after (min) 1 [4]: 4 mL
- Foamability (mL) after (min) 5 [4]: 4 mL
- Foamability (mL) after (min) 10 [4]: 3 mL
- Foamability 1 min [4]: 4 mL
- Foamability 5 min [4]: 4 mL
- Foamability 30 min [4]: 3 mL
- concentration at which the surface tension is reached [6]: 0.02%
- CMC (%) ([6]; Table E5.2): 0.2%
- Surface tension (nM/m) ([6]; Table E5.2): 33.8 mN/m
- CMC (%) ([6]; Table E7): 0.2%
- SURFACE TENSION ([6]; Table E7): 36.5 mN/m
- CMC (%) ([6]; Table E8): 0.2%
- Surface tension (nM/m) ([6]; Table E8): 33.8 mN/m
- zein score / skin irritation potential value (Zein): 49
- skin irritation potential value (zein) (Zein; pH11): > 49
- FOAM ([3]; Table E7): ++

Compound: CCCCCCCCN(C)C(=O)[C@H](O)[C@@H](O)[C@@H](O)CO [Compound 17, N-methyl-N-octyl-L-arabinonamide]
- solubility in water, in words [1]: well soluble
- SOLUBILITY (H2O) [1, 7]: Soluble
- solubility in methanol, in words [2]: well soluble
- foaming behaviour / foam creation, in words [3]: good foaming behaviour
- FOAM ([3]; Table E3): ++

Compound: CCCCCCNC[C@H](O)[C@@H](O)[C@@H](O)[C@H](O)C(=O)O [Compound 37, N-hexyl-D-galacturonic acid amine, reference compound]
- SOLUBILITY (H2O) ([1]; Table E5): 14%
- Solubility [1]: 14%
- Solubility in 3:1 EtOH/H2O [2]: (Poorly in 3:1
- FOAM ([3]; Table E5, pH not given): −

Compound: CCCCCCCCCCCCN(C)C[C@H](O)[C@@H](O)[C@@H](O)CO [Compound 25, N-methyl-N-dodecyl-L-arabinamine]
- SOLUBILITY (H2O) ([1]; Table E4): 0.06%
- Solubility [1]: 0.06%
- Foamability (mL) after (min) 1 [4]: 5 mL
- Foamability (mL) after (min) 5 [4]: 5 mL
- Foamability (mL) after (min) 10 [4]: 4 mL
- CMC (%) ([6]; Table E4): 0.1%
- SURFACE TENSION ([6]; Table E4, room temperature, pH 7): 26.2 mN/m
- CMC (%) ([6]; Table E5.2): 0.1%
- Surface tension (nM/m) ([6]; Table E5.2): 26.2 mN/m
- FOAM ([3]; Table E4, pH > 7): ++

Compound: CCCCCCCCCCCC[N+](C)([O-])C[C@H](O)[C@@H](O)[C@@H](O)[C@H](O)C(=O)O (stereo partly drawn) [Compound 43, N-methyl-N-dodecyl-D-galacturonic acid amine oxide]
- SOLUBILITY (H2O) ([1]; Table E6, N-oxide compounds, in Salt form): 7%
- Solubility (%) [1]: 7%
- Foamability 1 min [4]: 5 mL
- Foamability 5 min [4]: 4 mL
- Foamability 30 min [4]: 4 mL
- CMC (%) ([6]; Table E6, in Salt form): 0.058%
- SURFACE TENSION ([6]; Table E6, in Salt form): 25.551 mN/m
- CMC (%) ([6]; Table E8): 0.058%
- Surface tension (nM/m) ([6]; Table E8): 25.55 mN/m
- FOAM ([3]; Table E6, in Salt form): +++
